Measurements published in patent publication EP1038880B1, “Androstanes and pregnanes for allosteric modulation of GABA receptor” (priority 1994, dated 1995).
Like-named read-outs stand apart in the source and are kept apart here.

What was measured:
tonic seizure = details: cited from earlier work
mice [1] = details: data from Swinyard & Woodhead 1982; cited from earlier work
(+)bicuculline = details: cited from earlier work
picrotoxin = details: cited from earlier work
[2] = tested on: metrazol induced convulsions; details: cited from earlier work
mice [3] = assay: Loss-of-righting reflex (anesthetic activity); type: in vivo; details: iv
Experimental: The compounds of and used in the invention can also be used for anesthetic indications at high doses. However, the preferred route of administration to induce anesthesia is intravenous (i.v.) administration. In animals, a drug's anesthetic properties is measured by the drug's ability to produce a loss-of-righting reflex. The loss-of-righting reflex is defined as the inability of an animal to right itself within […] on its back. Mice were administered drug i.v. in the lateral tail vein. Following administration, mice were placed on their backs and observed for loss-of-righting reflex. Table 12. Anesthetic Activity of Neuroactive Steroids in Mice

[4] = tested on: Bovine Uteral Progesterone Receptors; assay: Inhibition of 3H-progesterone binding, uterus cytosol; details: competitor 10^-6M; 3H-progesterone 0.15 nM
Experimental: The data presented were obtained by performing assays in accordance with the procedures described in et al. 1988 previously to determine the effect of progesterone metabolites and their derivatives and the progestin R5020 on the binding of [^3H]R5020 to the progesterone receptor in rat uterus (Gee et al. 1988).
^3H-progesterone (0.15 nM) was incubated with the rat uterus cytosol in the presence of the test compounds. The specific binding were determined after incubation and compared to the control incubation without the compounds. The data are expressed as percent inhibition of binding.
In Table 3, rats were adrenalectomized 3 days prior to sacrifice. To isolate the mineralocorticoid receptor, brain cytosol fractions were prepared as describe in Gee, et al. 1988. The drugs were incubated with 3 nM of ^3H-aldosterone (the specific ligand for the mineralocorticoid receptor) in the presence of the selective type II agonist RU28362 (0.5 µM) which blocks ^3H-aldosterone binding to the type II (glucocorticoid) receptors. Table 2. Inhibition of 3H-Progesterone Binding to the Bovine Uteral Progesterone Receptors

[5] = biological target: T1, Hippocampal Mineralocorticoid Receptors (Rattus norvegicus, UniProt P22199); assay: Inhibition of 3H-aldosterone binding, brain cytosol; set-up: species or system rats; details: competitor 10^-6M; 3 nM 3H-aldosterone, RU28362 0.5 µM
T1 construct: To isolate the mineralocorticoid receptor, brain cytosol fractions were prepared; from tissue; host or cells: rat brain (hippocampal) cytosol
T1 sequence (P22199 1-981): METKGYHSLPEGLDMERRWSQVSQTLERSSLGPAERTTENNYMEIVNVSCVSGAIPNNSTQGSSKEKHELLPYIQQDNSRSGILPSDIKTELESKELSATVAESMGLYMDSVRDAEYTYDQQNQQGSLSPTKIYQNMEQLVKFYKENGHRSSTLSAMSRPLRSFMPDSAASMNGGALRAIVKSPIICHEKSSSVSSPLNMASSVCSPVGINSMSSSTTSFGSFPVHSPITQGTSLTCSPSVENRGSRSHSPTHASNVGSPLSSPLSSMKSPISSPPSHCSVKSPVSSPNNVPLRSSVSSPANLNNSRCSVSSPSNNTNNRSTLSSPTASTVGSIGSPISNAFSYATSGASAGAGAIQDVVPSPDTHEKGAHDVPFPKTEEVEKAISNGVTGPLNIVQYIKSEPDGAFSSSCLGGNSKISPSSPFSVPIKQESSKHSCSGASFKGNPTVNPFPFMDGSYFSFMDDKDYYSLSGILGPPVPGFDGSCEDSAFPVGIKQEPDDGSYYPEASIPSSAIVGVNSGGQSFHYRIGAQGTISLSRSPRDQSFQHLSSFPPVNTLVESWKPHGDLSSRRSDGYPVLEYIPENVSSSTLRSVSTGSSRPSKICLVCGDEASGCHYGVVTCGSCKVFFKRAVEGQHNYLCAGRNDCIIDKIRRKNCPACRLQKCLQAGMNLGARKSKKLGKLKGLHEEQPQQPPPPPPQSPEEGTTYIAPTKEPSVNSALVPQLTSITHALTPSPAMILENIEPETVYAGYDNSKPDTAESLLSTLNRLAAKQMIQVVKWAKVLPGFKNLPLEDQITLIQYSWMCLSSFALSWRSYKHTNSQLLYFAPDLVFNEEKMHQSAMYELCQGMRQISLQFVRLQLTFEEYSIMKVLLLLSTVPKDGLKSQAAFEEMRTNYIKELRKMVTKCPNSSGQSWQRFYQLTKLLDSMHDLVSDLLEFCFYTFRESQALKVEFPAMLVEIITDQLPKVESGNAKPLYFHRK
Experimental: Various hormonal activities of representative neuroactive steroids were further studied through testing their potential estrogenic, mineralocorticoid and glucocorticoid activities. These activities were analyzed by monitoring the ability of the compounds to inhibit binding of the steroid hormones to their respective hormone receptors.
In Table 3, rats were adrenalectomized 3 days prior to sacrifice. […] Table 2. Inhibition of 3H-Progesterone Binding to the Bovine Uteral Progesterone Receptors
Table 3. Inhibition of 3H-Aldosterone Binding to Hippocampal Mineralocorticoid Receptors

[6] = biological target: T2, Bovine Uteral Estrogen Receptors (Bos taurus, UniProt P49884); assay: Inhibition of 3H-estradiol binding, uteri cytosol; details: competitor 10^-6M; 3H-estradiol 0.15 nM
T2 construct: from tissue; host or cells: bovine uteri cytosol
T2 sequence (P49884 1-596): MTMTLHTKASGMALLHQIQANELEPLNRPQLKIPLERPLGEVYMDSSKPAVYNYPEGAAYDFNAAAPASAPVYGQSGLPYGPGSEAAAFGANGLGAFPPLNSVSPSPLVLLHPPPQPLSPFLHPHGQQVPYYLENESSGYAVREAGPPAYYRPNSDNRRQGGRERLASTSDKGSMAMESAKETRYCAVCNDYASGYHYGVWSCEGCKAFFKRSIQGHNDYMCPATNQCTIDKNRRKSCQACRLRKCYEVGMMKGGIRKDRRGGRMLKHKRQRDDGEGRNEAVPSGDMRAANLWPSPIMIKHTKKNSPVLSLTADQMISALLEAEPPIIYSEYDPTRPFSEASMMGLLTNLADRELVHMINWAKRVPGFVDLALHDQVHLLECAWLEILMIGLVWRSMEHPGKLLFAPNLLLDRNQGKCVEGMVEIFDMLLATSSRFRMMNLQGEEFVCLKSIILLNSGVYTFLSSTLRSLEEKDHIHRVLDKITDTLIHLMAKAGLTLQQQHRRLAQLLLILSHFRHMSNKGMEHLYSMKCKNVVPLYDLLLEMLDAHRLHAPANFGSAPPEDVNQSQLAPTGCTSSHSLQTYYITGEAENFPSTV

[7] = tested on: N.I.H. Swiss-Webster mice; assay: Light/dark transition test; type: in vivo; details: IP, 10 min test, vs control, Dunnett's t-test (Fig. 8)
Experimental: Male N.I.H. Swiss-Webster mice (Harlan, Harlan, Indianapolis, IN) weighing 15-20 g were housed four per cage in polyethylene cages with sawdust bedding. The colony room was environmentally controlled (22°C) with a hr light/dark cycle (0600-1800hr). Food and water were available ad libitum, except during testing. The experiments were run from 0700-1500 hr and groups were counterbalanced for time of day effects. Mice were only administered drug or vehicle once.
The apparatus included two 2-compartment automated test chambers (Model RXYZCM16, Omnitech Electronics, Columbus, OH). The open compartment was connected to the enclosed compartment via a 7.5 × 7.5 cm passageway. The open compartment was brightly lit using a 200 W incandescent light bulb. The experimental room was kept dark. Interruptions of the infrared beams in either chamber were automatically recorded by being linked to a computer through a Digiscan Analyzer (Omnitech and the data was analyzed using the Integrated Lab Animal Monitoring System (Omnitech Electronics). N.IH. Swiss-Webster mice were administered vehicle or test drug intraperiotoneally (IP),10 min later they were placed in the center of the lit compartment. The number of transitions between the lit and dark chambers, total activity in the lit chamber and the time spent in the lit chamber were measured during a 10 min test period.

strychnine = details: convulsant i.v.; data from Worms et al. 1982; cited from earlier work
[8] = data from Swinyard & Woodhead 1982
[9] = convulsant i.v., data from Worms et al. 1982

## O=C1CN=C(c2ccccc2Cl)c2cc([N+](=O)[O-])ccc2N1 [Clonazepam]
Tonic seizure; [8]
  ED50 MES: 93 mg/kg
Mice [1]
  ED50 RR: 0.184 mg/kg
(+)bicuculline; [8]
  ED50 BIC: 0.0086 mg/kg
picrotoxin; [8]
  ED50 PICRO: 0.043 mg/kg
[2]; [8]
  ED50 MTZ: 0.009 mg/kg

## CC(=O)[C@H]1CC[C@H]2[C@@H]3CC[C@H]4C[C@H](O)CC[C@]4(C)C3=CC[C@]12C [3α-Hydroxy-5α-pregn-9-en-20-one]
Mice [3]; 10 mg/kg
  Loss-of-Righting Reflex: 100

## 5α-pregnan-3β,20-trimethyl-3α,20-diol
[4]
  % of Inhibition: 8%
[5]
  % of Inhibition: 0%
[6]
  % of Inhibition: 0%

## CO/C=C1/CC[C@H]2[C@@H]3CC[C@H]4C[C@H](O)CC[C@@H]4[C@H]3CC[C@]12C [3α-Hydroxy-17(Z)-methoxymethylene-19-nor-5α-androstane]
Mice [3]; 5 mg/kg
  Loss-of-Righting Reflex: 75

## CC(=O)[C@H]1CC[C@H]2[C@@H]3CC[C@@H]4C[C@H](O)CC[C@]4(C)[C@H]3CC[C@]12C [5β-pregnan-3α-ol-20-one, 3α-OH-5β-pregnan-20-one]
[4]
  % of Inhibition: 9%
[7]
  number of transitions between the dark box and the light box, in words: significantly increased

## CC(=O)[C@H]1CC[C@H]2[C@@H]3CC[C@@H]4C[C@@](O)(C#CCl)CC[C@]4(C)[C@H]3CC[C@]12C [3β-(Chloroethynyl)-3α-hydroxy-5β-pregnan-20-one]
Mice [3]; 20 mg/kg
  Loss-of-Righting Reflex: 100

## CCC1(c2ccccc2)C(=O)NC(=O)NC1=O [Phenobarbital]
Mice [1]
  ED50 RR: 69 mg/kg

## NC(=O)CCC/N=C(\c1ccc(Cl)cc1)c1cc(F)ccc1O [Progabide]
strychnine
  ED50 STR: 75 mg/kg
Tonic seizure; data from Worms et al. 1982
  ED50 MES: 75 mg/kg
(+)bicuculline; [9]
  ED50 BIC: 30 mg/kg
picrotoxin; [9]
  ED50 PICRO: 105 mg/kg
[2]; [9]
  ED50 MTZ: 30 mg/kg
